Source: US9359317B2, “Small molecule inhibitors of HIV proteases” (Purdue Research Foundation, priority 2008, dated 2016)
pKi: −log10 of the molar value.

These molecules were tested against HIV Protease (Human immunodeficiency virus type 1 group M subtype B, UniProt P04585) (assay: Inhibition of HIV Protease). Conditions: Table 1, Inhibition of HIV Protease by compounds of formula drawing 46.
Format: biochemical
`C=CCC1OC(c2ccccc2)CC1C(NS(=O)(=O)c1ccc(F)cc1)C(=O)O` (stereo not shown) [compound 18] was tested, and the pKi was < 6.00.
With `Cc1ccc(S(=O)(=O)NC(C(=O)O)C2CC(c3ccccc3)OC2CC(O)c2ccccc2)cc1` (stereo not shown) [compound 21] the pKi was 8.40.
`Cc1ccc(S(=O)(=O)NC(C(=O)O)C2CC(c3ccccc3)OC2CC(O)CO)cc1` (stereo not shown) [compound 22] showed a pKi of 7.57.
For `C=CCC1OC(c2ccccc2)CC1C(NS(=O)(=O)c1ccc(C)cc1)C(=O)O` (stereo not shown) [compound 25], the pKi was < 6.00.
`Cc1ccc(S(=O)(=O)NC(C(=O)O)C2CC(c3ccc4ccccc4c3)OC2CC(O)c2ccccc2)cc1` (stereo not shown) [compound 26] showed a pKi of 6.82.
With `CC=CC1OC(c2ccccc2)CC1C(NS(=O)(=O)c1ccc(C)cc1)C(=O)O` (stereo not shown) [compound 33] the pKi was < 6.00.

Same assay, conditions: Table 2, Inhibition of HIV Protease
In the case of `COc1ccc(S(=O)(=O)NC(C(=O)O)C2CC3Cc4cc(OC)ccc4C2O3)cc1` (stereo not shown) [compound 2], the pKi was < 6.00.
